From patent US9586959B2, “Substituted tricyclic heterocycles as histamine 4 receptor inhibitors” (C&C RESEARCH LABORATORIES, priority 2011, dated 2017)

How the values were obtained:
[1] = Mouse pharmacokinetics (oral); format: in vivo; details: plasma, 50 mg/kg, ICR mouse, 5 mg/mL solution at 10 mL/kg; for AUC(0-inf): read-out: Mouse pharmacokinetics AUCinf; for half-life: read-out: Mouse pharmacokinetics t1/2 (converted)
Method: (§1) The weight of each ICR mouse and SD rat was properly 20˜30 g and 200˜300 g, and dosage of the compound of the present invention was 10 mL/kg for mice and 5 mL/kg for rats, and administered orally using Zonde. Blood collection was performed at 0.25, 0.5, 1, 2, 4, 6, 8 and 24 hours by orbital venous blood collection using a capillary tube coated with an anticoagulant, and then plasma was isolated using a centrifuge and kept in a freezer.
(§2) Plasma collected from animals and standard concentration material were pretreated using solid-phase extraction, and concentration of the compound of the invention was determined using a liquid chromatography mass spectrometer (Agilent HPLC, API-3000).
(§3) According to the resulting concentration value, the pharmacokinetics parameter was found using WinNonlin (Version 6.2) and half-life (t1/2), maximum blood concentration (Cmax) and infinite area under the curve (AUCinf) are shown in Tables 6 and 7 below.

[2] = test system: substance P-induced itching, ICR mice; experiment: Substance P-induced itching model in ICR mice; format: in vivo; details: 50 mg/kg oral, substance P 100 nmol intradermal, 20 min count
Method: (§4) Female, ICR mice (8 weeks old) were purchased from OrientBio Co., Ltd. The animals were housed under conditions of controlled temperature (23±3° C.), humidity (50±5%) and lighting with food and water available ad libitum.
(§5) The hair was clipped using clippers (8000AD, THRIVE) over the rostral part of the back 24 hours before the experiment under anesthesia with isoflurane. Substance P (100 nmol) was dissolved in saline and a volume of 40 μL injected intradermally into the rostral part of the back. Mice were dosed with either vehicle (20% cyclodextrin in second distilled water) or the compound by orally administration. The Compound (50 mg/kg) dissolved in a vehicle (20% cyclodextrin in second distilled water) and administered orally at a volume of 10 mL/kg.
(§6) Mice (n=10 per group) were divided into 3 groups (normal group, control group and experimental group). The animals were randomized for similar body weight distribution. A Vehicle or the compound was administered 20 minutes before injection of substance P or saline. Immediately after intradermal injection, the animals were returned to an acrylic cage (approximately 30×30×30 cm, access production) composed of four cells, to which they had been acclimated for at least 1 hour before the experiment, for observation of itch responses. A camera (Samsung, VLUUNV30) was positioned above the mice to record their response. Itch was measured by blinded counting of the number of scratching in the 20 min period immediately after the intradermal injection. A number of scratching was defined as 3 or more individual rapid scratch movements with the hind paws around the injection site (J. Toxicol. Sci. 2009, 34(4), 427-431; J. Pharmacol. Sci. 2006, 100, 285-288). All data were analyzed by using Excel and Prism, and all values are expressed as the mean±S.E.M. The inhibitory effect of compounds is shown as a percentage of the maximal response to histamine (100% control group). Statistical analysis was analyzed using one-way ANOVA with Dunnett test. Values of p<0.05 were considered statistically significant.

[3] = target: human serotonin 3 receptor (human 5-HT3 receptor) (Homo sapiens (Human), UniProt P46098); experiment: Binding affinity of human serotonin 3 receptor (performed at Cerep); details: for inhibition at 10 µM: read-out: % inhibition degree at 10 μM, human serotonin 3 receptor (h5-HT3R); for IC50: read-out: Binding affinity (IC50) of human serotonin 3 receptor (h5-HT3R)
Chain of human serotonin 3 receptor (human 5-HT3 receptor) (P46098 24-478): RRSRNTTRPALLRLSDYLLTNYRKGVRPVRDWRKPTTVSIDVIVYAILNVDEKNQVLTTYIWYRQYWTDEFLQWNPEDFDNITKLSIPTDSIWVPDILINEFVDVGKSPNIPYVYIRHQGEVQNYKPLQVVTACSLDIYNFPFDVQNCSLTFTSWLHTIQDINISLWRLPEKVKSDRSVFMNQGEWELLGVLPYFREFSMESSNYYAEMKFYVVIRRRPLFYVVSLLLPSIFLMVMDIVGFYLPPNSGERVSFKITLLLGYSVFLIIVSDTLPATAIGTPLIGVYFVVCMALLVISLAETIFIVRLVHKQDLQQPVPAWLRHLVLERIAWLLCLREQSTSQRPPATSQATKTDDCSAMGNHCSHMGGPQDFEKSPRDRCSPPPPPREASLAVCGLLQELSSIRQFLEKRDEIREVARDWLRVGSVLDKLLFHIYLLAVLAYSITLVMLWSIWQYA
Method: The binding assays of the human serotonin 3 receptor for present invention were performed at Cerep (Poitiers, France), and the results of analysis are shown in Table 3.

[4] = test system: compound 48/80-induced itching, ICR mice; experiment: Compound 48/80-induced itching model in ICR mice; format: in vivo; details: 50 mg/kg oral, compound 48/80 100 μg intradermal, 20 min count
Method: as §4
as §5, with “Compound 48/80” for “Substance P”, “μg) were” for “nmol) was”, “dosed by orally” for “dosed”
as §6, with “Mice (n=8-10 per group)” for “Mice (n=10 per group)”, “distribution. A vehicle or the” for “distribution. A Vehicle or the”, “injection of compound 48/80 or saline.” for “injection of substance P or saline.”, “number of bouts in the” for “number of scratching in the”, “site (J. Pharmacol. Sci.” for “site (J. Toxicol. Sci. 2009, 34(4), 427-431; J. Pharmacol. Sci.”, “2006, 100, 285-288; European J. of Pharmacol. 2002, 448, 175-183). All data” for “2006, 100, 285-288). All data”

[5] = Rat pharmacokinetics (oral); format: in vivo; details: plasma, 10 mg/kg, SD rat, 2 mg/mL solution at 5 mL/kg; for AUC(0-inf): read-out: Rat pharmacokinetics AUCinf; for half-life: read-out: Rat pharmacokinetics t1/2 (converted)
Method: as §1, §2, §3

[6] = test system: histamine-induced mast cell migration (trachea); experiment: Histamine-induced mast cell migration; format: in vivo, Balb/c mice; details: 20 mg/kg oral, 0.1 M histamine aerosol, 2 days
Method: Female, Balb/c mice (7 weeks old, 20±3 g) were purchased from OrientBio Co., Ltd.
The animals were housed under conditions of controlled temperature (23±3° C.), humidity (50±5%) and lighting with food and water available ad libitum.
Mice were dosed with either vehicle (20% cyclodextrin in second distilled water) or the compound by orally administration. The Compound (20 mg/kg) dissolved in a vehicle and administered orally at a volume of 10 mL/kg. After 15 minutes, mice were challenged by a 20 min aerosol inhalation of PBS (phosphate buffered saline) or 0.1 M histamine (dissolving in PBS). This process was repeated for 2 days. After a final challenge, the tracheae were cleared of blood via perfusion of PBS and tracheae were extracted, the tracheae were fixed in 10% (w/v) formaldehyde for subsequent paraffin cross-sectioning and toluidine blue staining. Total mast cells were calculated, and a mean was reported. (The Journal of Pharmacology and Experimental Therapeutics, 2004, 309, 404-413). Statistical analysis was analyzed using one-way ANOVA with Dunnett test. Values of p<0.05 were considered statistically significant.

Structure (SMILES)	Cmax [1] [µg/mL]	AUC(0-inf) [1] [µg·h/mL]	half-life [1] [h]	Cmax [5] [µg/mL]	AUC(0-inf) [5] [µg·h/mL]	half-life [5] [h]	Number of scratching (% change from control group) [2]	inhibition at 10 µM [3] [%]	IC50 [3] [µM]	Number of scratching (% change from control group) [4]	Mast cell migration (% change from control group) [6]
CNC1CN(c2nc3ncc(Br)cc3n3nnnc23)C1 [Compound 95, 1-(8-Bromopyrido[2,3-e]tetrazolo[1,5-a]pyrazin-4-yl)-N-methylazetidin-3-amine]	15.4	98.3	4.03	–	–	–	80.7^1%	25	> 10	93.6^1%	–
CNC1CN(c2nc3ncc(Br)cc3n3cnnc23)C1 [Compound 24, 1-(8-Bromopyrido[2,3-e][1,2,4]triazolo[4,3-a]pyrazin-4-yl)-N-methylazetidin-3-amine]	18.9	32.2	0.96	2.42	4.51	1.3	74.5^1%	–	9.1	47.9^1%	60.0^1%
Clc1cnc2nc(N3CCNCC3)c3nncn3c2c1 [Compound 7, 8-Chloro-4-(piperazin-1-yl)pyrido[2,3-e][1,2,4]triazolo[4,3-a]pyrazine]	6.57	16.5	1.28	1.33	3.11	1.62	60.5^1%	–	–	–	43.1^1%

More lines, main results first:

Cmax [1] [µg/mL]	AUC(0-inf) [1] [µg·h/mL]	half-life [1] [h]	Cmax [5] [µg/mL]	AUC(0-inf) [5] [µg·h/mL]	half-life [5] [h]	Structure (SMILES)	Number of scratching (% change from control group) [2]	inhibition at 10 µM [3] [%]	IC50 [3] [µM]	Number of scratching (% change from control group) [4]	Mast cell migration (% change from control group) [6]
14.9	35.6	2.21	1.95	7.74	1.88	CN1CCN(c2nc3ncc(Cl)cc3n3cnnc23)CC1 [Compound 4, 8-Chloro-4-(4-methylpiperazin-1-yl)pyrido[2,3-e][1,2,4]triazolo[4,3-a]pyrazine]	50.8%	–	–	49.6^1%	70.3^1%
12.3	23.7	1.32	2.59	4.56	1.04	CNC1CN(c2nc3ncc(Cl)cc3n3cnnc23)C1 [Compound 18, 1-(8-Chloropyrido[2,3-e][1,2,4]triazolo[4,3-a]pyrazin-4-yl)-N-methylazetidin-3-amine]	42.6%	–	2.9	50.9^1%	–
10.2	21.6	1.46	–	–	–	CNC1CN(c2nc3ncc(I)cc3n3cnnc23)C1 [Compound 48, 1-(8-Iodopyrido[2,3-e][1,2,4]triazolo[4,3-a]pyrazin-4-yl)-N-methylazetidin-3-amine]	33.5%	28	> 10	30.3%	–
